Patent US20230116602A1, “MCL1 INHIBITORS AND USES THEREOF” (California Institute of Technology, priority 2019, published 2023)

Key:
[1] = tested on: drug-sensitive cell lines of Table 3; assay: Cell line growth retardation assay, sensitive cohort; type: cell-based, Human; conditions: for IC50: Homo sapiens, 144 h, arithmetic mean of IC50s over the sensitive cohort of Table 3, 6 days growth, read-out: AvgSen IC50; for Fold Diff: average IC50 of resistant cohort divided by average IC50 of sensitive cohort
Procedure: (§1) Cells were seeded at densities of 1,000-5,000 cells per well in 48-well tissue culture plates. After a 24 h rest period, cells were treated with compound at 10 μM, 1 μM, […], 0.08 μM, 0.016 μM, and 0.0032 μM. A group of cells were treated with the vehicle in which the compound was prepared and served as a control. Prior to treatment, cells were counted and this count was used as a baseline for the calculation of growth inhibition. The cells were grown in the presence of compounds for 6 days and were counted on day 6. All cell counting was performed using a Synentec Cellavista plate imager. Growth inhibition was calculated as a ratio of cell population doublings in the presence of compound versus the absence of compound. […] IC50 values for each compound were calculated by fitting curves to data points from each dose-response assay using the Proc NLIN function in SAS for Windows version 9.2 (SAS Institute, Inc.).
(§2) Human cancer cell lines were grouped as “sensitive” or “resistant” to MCL1 inhibition based on whether their growth was retarded by AMG-176 (i.e., (1′S,11R,12S,14E,16S,16aR,18aR)-6′-Chloro-3′,4′,12,13,16,16a,17,18,18a,19-decahydro-16-methoxy-11,12-dimethyl-,Spiro[5,7-etheno-1H,11H-cyclobut[i][1,4]oxazepino[3,4-f][1,2,7]thiadiazacyclohexadecine-2(3H),1′(2′H)-naphthalen]-8(9H)-one 10,10-dioxide) or MIK665 (i.e., (R)-2-((5-(3-chloro-2-methyl-4-(2-(4-methylpiperazin-1-yl)ethoxy)phenyl)-6-(4-fluorophenyl)thieno[2,3-d]pyrimidin-4-yl)oxy)-3-(2-((2-(2-methoxyphenyl)pyrimidin-4-yl)methoxy)phenyl)propanoic acid) (data not shown; see Table 3). These sensitive and resistant cohorts were interrogated for response to each compound, and IC50S were calculated for each cell line using the same technique described above. Average IC50S for the sensitive (“AvgSen IC50”) and resistant (“AvgRes IC50”) cohorts were calculated as arithmetic means of the group, and fold differences (“Fold Diff”) between the resistant and sensitive cohorts were calculated by diving the average IC50 for the resistant cohort by the average IC50 for the sensitive cohort. “A” represents an IC50 of 1 μM or less, “B” represents an IC50 of greater than 1 μM to 5 μM, “C” represents an IC50 of greater than 5 μM, “+” represents a fold difference of 10 or more, and “−” represents a fold difference less than 10.

MCL1 = MCL1 (Homo sapiens, UniProt Q07820); assay: MCL1 affinity assay (competition binding, qPCR readout); conditions: recombinant MCL1, 11-point 3-fold dilution series
MCL1, sequence (Q07820 whole entry): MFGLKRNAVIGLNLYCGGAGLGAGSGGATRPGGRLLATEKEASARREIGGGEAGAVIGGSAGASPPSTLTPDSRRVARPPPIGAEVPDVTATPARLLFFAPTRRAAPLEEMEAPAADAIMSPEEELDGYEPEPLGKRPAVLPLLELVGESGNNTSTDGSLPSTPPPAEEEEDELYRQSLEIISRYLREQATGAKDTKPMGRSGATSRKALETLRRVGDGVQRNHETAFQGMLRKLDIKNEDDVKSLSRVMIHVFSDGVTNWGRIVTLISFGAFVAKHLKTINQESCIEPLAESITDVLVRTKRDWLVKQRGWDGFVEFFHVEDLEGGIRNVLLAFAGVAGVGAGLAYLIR
Procedure: Recombinant MCL1, BCL2 and BCXL proteins were prepared in either an E. coli host derived from the BL21 strain or in HEK-293 cells. The recombinant proteins were subsequently tagged with DNA for qPCR detection. Streptavidin-coated magnetic beads were treated for 30 minutes at room temperature with the respective biotinylated peptide ligands for each recombinant protein to generate affinity resins for the assays. The liganded beads were blocked with excess biotin and washed with blocking buffer (SeaBlock (Pierce), 1% BSA, 0.05% Tween 20, 1 mM DTT) to remove unbound ligand and to reduce nonspecific binding. Binding reactions were assembled by combining recombinant protein, liganded affinity beads, and test compounds in 1× binding buffer (20% SeaBlock, 0.17×PBS, 0.05% Tween 20, 6 mM DTT). Test compounds were prepared as 111X stocks in 100% DMSO. The compounds were then diluted directly into the assays such that the final concentration of DMSO was 0.9%. The assay plates were incubated at room temperature with shaking for 1 hour and the affinity beads were washed with wash buffer (1×PBS, 0.05% Tween 20). The beads were then re-suspended in elution buffer (1×PBS, 0.05% Tween 20, 0.5 μM non-biotinylated affinity ligand) and incubated at room temperature with shaking for 30 minutes. The recombinant protein concentration in the eluates was measured by qPCR. Kds were determined using an 11-point 3-fold compound dilution series with three DMSO control points.

[2] = tested on: drug-resistant cell lines of Table 3; assay: Cell line growth retardation assay, resistant cohort; type: cell-based, Human; conditions: Homo sapiens, 144 h; arithmetic mean of IC50s over the resistant cohort of Table 3, 6 days growth; read-out: AvgRes IC50
Procedure: as §1, §2

Compound | IC50 [1] | Fold Diff [1] | Kd (MCL1) | IC50 [2]
COc1ccccc1-c1nccc(COc2ccccc2C[C@@H](Oc2nsc3cnc(C4CCC4)c(-c4ccc(OCCN5CCN(C)CC5)c(Cl)c4C)c23)C(=O)O)n1 (atropisomer, axis not shown) [Compound 36] | ≤ 1 µM | + (“+” represents a fold difference of 10 or more) | ≤ 0.1 µM | > 5 µM
Cc1c(-c2c(C3CCC3)ncc3snc(O[C@H](Cc4ccccc4OCc4ccnc(-c5ccc(C(=O)N6CCC6)cc5)n4)C(=O)O)c23)ccc(OCCN2CCN(C)CC2)c1Cl (atropisomer, axis not shown) [Compound 122] | ≤ 1 µM | + (“+” represents a fold difference of 10 or more) |  | > 5 µM
COc1cccc(-c2ncc3snc(O[C@H](Cc4ccccc4OCc4ccnc(N5CCCC(C)(C)C5)n4)C(=O)O)c3c2-c2ccc(OCCN3CCN(C)CC3)c(Cl)c2C)c1 (atropisomer, axis not shown) [Compound 62] | 1 to 5 µM | − (“−” represents a fold difference less than 10) | 0.501 to 1.5 µM | > 5 µM
Cc1c(-c2cc(-n3c(C)c(Cl)c4cc(Cl)cnc43)cc3snc(O[C@H](Cc4ccccc4OCc4ccnn4CC(F)(F)F)C(=O)O)c23)ccc(OCCN2CCN(C)CC2)c1Cl [Compound 100] | 1 to 5 µM | − (“−” represents a fold difference less than 10) | 0.501 to 1.5 µM | > 5 µM
COc1cccc(-c2ncc3snc(O[C@H](Cc4ccccc4OCc4ccnc(OCC(F)F)n4)C(=O)O)c3c2-c2ccc(OCCN3CCN(C)CC3)c(Cl)c2C)c1 [Compound 58] | ≤ 1 µM | + (“+” represents a fold difference of 10 or more) | ≤ 0.1 µM | > 5 µM
Cc1c(-c2c(C3CCC3)ncc3snc(O[C@H](Cc4ccccc4OCc4ccnc(-c5ccc(N6CCOCC6)cc5)n4)C(=O)O)c23)ccc(OCCN2CCN(C)CC2)c1Cl (atropisomer, axis not shown) [Compound 123] | ≤ 1 µM | + (“+” represents a fold difference of 10 or more) |  | > 5 µM
CCn1ccc(-c2ncc3snc(O[C@H](Cc4ccccc4OCc4ccnc(-c5ccccc5OC)n4)C(=O)O)c3c2-c2ccc(OCCN3CCN(C)CC3)c(Cl)c2C)n1 (atropisomer, axis not shown) [Compound 76] | > 5 µM | − (“−” represents a fold difference less than 10) | 0.501 to 1.5 µM | > 5 µM
Cc1c(-c2c(C3CCC3)ncc3snc(O[C@H](Cc4ccccc4OCc4ccnc(C5CCOCC5)n4)C(=O)O)c23)ccc(OCCN2CCN(C)CC2)c1Cl (atropisomer, axis not shown) [Compound 111] | ≤ 1 µM | + (“+” represents a fold difference of 10 or more) | ≤ 0.1 µM | > 5 µM
COc1cc(-c2ncc3snc(O[C@H](Cc4ccccc4OCc4ccnc(-c5ccccc5OC)n4)C(=O)O)c3c2-c2ccc(OCCN3CCN(C)CC3)c(Cl)c2C)ccn1 (atropisomer, axis not shown) [Compound 33] | ≤ 1 µM | + (“+” represents a fold difference of 10 or more) | ≤ 0.1 µM | > 5 µM
COc1ccccc1-c1nccc(COc2ccccc2C[C@@H](Oc2nsc3cnc(C4CCC4)c(-c4ccc(OCCN5CCOCC5)c(Cl)c4C)c23)C(=O)O)n1 (atropisomer, axis not shown) [Compound 108] | 1 to 5 µM | − (“−” represents a fold difference less than 10) | ≤ 0.1 µM | > 5 µM
COc1cccc(-c2ncc3snc(O[C@H](Cc4ccccc4OCc4ccnc(-c5ccccc5S(C)(=O)=O)n4)C(=O)O)c3c2-c2ccc(OCCN3CCN(C)CC3)c(Cl)c2C)c1 (atropisomer, axis not shown) [Compound 68] | 1 to 5 µM | − (“−” represents a fold difference less than 10) | ≤ 0.1 µM | > 5 µM
COc1cccc(-c2ncc3snc(O[C@H](Cc4ccccc4OCc4ccnc(-c5ccccc5OC)n4)C(=O)O)c3c2-c2ccc(OCCN3CCN(C)CC3)c(Cl)c2C)c1 (atropisomer, axis not shown) [Compound 39] | 1 to 5 µM | − (“−” represents a fold difference less than 10) | 0.501 to 1.5 µM | 1 to 5 µM
COc1cccc(-c2ncc3snc(O[C@H](Cc4ccccc4OCc4ccnc(OCCCC(F)(F)F)n4)C(=O)O)c3c2-c2ccc(OCCN3CCN(C)CC3)c(Cl)c2C)c1 [Compound 59] | 1 to 5 µM | − (“−” represents a fold difference less than 10) | 0.101 to 0.5 µM | > 5 µM
COc1cccc(Oc2ccc(-c3nccc(COc4ccccc4C[C@@H](Oc4nsc5cnc(C6CCC6)c(-c6ccc(OCCN7CCN(C)CC7)c(Cl)c6C)c45)C(=O)O)n3)cn2)c1 (atropisomer, axis not shown) [Compound 114] | 1 to 5 µM | − (“−” represents a fold difference less than 10) | 0.101 to 0.5 µM | > 5 µM
COc1ccccc1-c1nccc(COc2ccccc2C[C@@H](Oc2nsc3cnc(C4CCC4)c(-c4ccc(OC)c(Cl)c4C)c23)C(=O)OCc2oc(=O)oc2C)n1 (atropisomer, axis not shown) [Compound 106] | 1 to 5 µM | − (“−” represents a fold difference less than 10) | 0.101 to 0.5 µM | > 5 µM
Cc1cc(C#N)ccc1-c1nccc(COc2ccccc2C[C@@H](Oc2nsc3cnc(C4CCC4)c(-c4ccc(OCCN5CCN(C)CC5)c(Cl)c4C)c23)C(=O)O)n1 (atropisomer, axis not shown) [Compound 116] | ≤ 1 µM | + (“+” represents a fold difference of 10 or more) | ≤ 0.1 µM | > 5 µM
COc1ccccc1-c1nccc(COc2ccccc2C[C@@H](Oc2nsc3cnc(C4CCC4)c(-c4ccc(OCCN5CCN(C)CC5)c(Cl)c4C)c23)C(=O)CCc2oc(=O)oc2C)n1 (atropisomer, axis not shown) [Compound 120] | ≤ 1 µM | + (“+” represents a fold difference of 10 or more) |  | > 5 µM
CCOC(=O)[C@@H](Cc1ccccc1OCc1ccnc(-c2ccccc2OC)n1)Oc1nsc2cnc(C3CCC3)c(-c3ccc(OCCN4CCN(C)CC4)c(Cl)c3C)c12 [Compound 103] |  |  | > 1.5 µM | 
Cc1c(-c2c(-c3ccc4sccc4c3)ncc3snc(O[C@H](Cc4ccccc4OCc4ccnn4CC(F)(F)F)C(=O)O)c23)ccc(OCCN2CCN(C)CC2)c1Cl (atropisomer, axis not shown) [Compound 8] |  |  | > 1.5 µM | 
Cc1c(-c2c(C3CCC3)ncc3snc(O[C@H](Cc4ccccc4OCc4ccnc(-c5cccc(-c6ccn(C)n6)c5)n4)C(=O)O)c23)ccc(OCCN2CCN(C)CC2)c1Cl (atropisomer, axis not shown) [Compound 121] | ≤ 1 µM | + (“+” represents a fold difference of 10 or more) |  | > 5 µM
COc1cccc(-c2ncc3snc(O[C@H](Cc4ccccc4OCc4ccnc(-c5ccccc5OC)n4)C(=O)O)c3c2-c2ccc(OCC3CCCN3C)c(Cl)c2C)c1 (stereo partly shown) [Compound 48] | ≤ 1 µM | + (“+” represents a fold difference of 10 or more) |  | > 5 µM
